± gives the standard deviation of the averaged measurements.
Legend:
[1] = tested on: HSC2 (primary human Schwann cells); test: drug sensitivity score (DSS, CellTiter-Glo viability, 72 h) (DSS (dimensionless)); higher = more sensitive; extreme values may be limits of the assay
Method in brief: (§1)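 MPNST cell lines and primary human Schwann cells (750–1000 cells per well) went into 384-well plates preprinted with each compound at five concentrations in 10-fold steps. Plates were incubated 72 h at 37 °C, 5% CO2. Viability was read as CellTiter-Glo ATP luminescence, scaled between vehicle and positive-control wells, with duplicates averaged where present. Percent inhibition is at the top concentration; drug sensitivity score and relative IC50 (censored at top concentration) come from four-parameter logistic fits.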

STS26T [2] = test: as above
Method in brief: as §1

ST8814 [3] = test: as above
Method in brief: as §1

YST-1 [4] = test: as above
Method in brief: as §1

S1507-2 [5] = test: as above
Method in brief: as §1

HS-PSS [6] = test: as above
Method in brief: as §1

HS-Sch-2 [7] = test: as above
Method in brief: as §1

[8] = tested on: HSC1 (primary human Schwann cells); test: as above
Method in brief: as §1

S462 [9] = test: as above
Method in brief: as §1

[10] = tested on: HSC2 (primary human Schwann cells); test: drug sensitivity score (DSS, CellTox-Green cytotoxicity, 72 h) (DSS (dimensionless)); higher = more cytotoxic; extreme values may be limits of the assay
Method in brief: (§2)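 MPNST cell lines and primary human Schwann cells were incubated 72 h at 37 °C in 384-well plates holding five 10-fold compound dilutions. CellTox-Green was added before seeding at a final 1:1000 dilution and reported fluorescence from DNA released by disrupted cells. Signals were scaled to vehicle and positive-control wells, and cultures failing plate quality control were dropped. Drug sensitivity score and relative IC50 come from four-parameter logistic fits, with IC50 censored at the top concentration.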

STS26T [11] = test: as above
Method in brief: as §2

ST8814 [12] = test: as above
Method in brief: as §2

S1507-2 [13] = test: as above
Method in brief: as §2

HS-PSS [14] = test: as above
Method in brief: as §2

[15] = tested on: HSC1 (primary human Schwann cells); test: as above
Method in brief: as §2

[16] = tested on: HSC2 (primary human Schwann cells); test: % inhibition of CellTiter-Glo viability at highest tested concentration (72 h), relative to DMSO and benzethonium chloride controls; higher = more inhibition
Method in brief: as §1

STS26T [17] = test: as above
Method in brief: as §1

ST8814 [18] = test: as above
Method in brief: as §1

YST-1 [19] = test: as above
Method in brief: as §1

S1507-2 [20] = test: as above
Method in brief: as §1

HS-PSS [21] = test: as above
Method in brief: as §1

HS-Sch-2 [22] = test: as above
Method in brief: as §1

[23] = tested on: HSC1 (primary human Schwann cells); test: as above
Method in brief: as §1

S462 [24] = test: as above
Method in brief: as §1

Row | Compound | drug sensitivity score [1] | drug sensitivity score (STS26T [2]) | drug sensitivity score (ST8814 [3]) | drug sensitivity score (YST-1 [4]) | drug sensitivity score (S1507-2 [5]) | drug sensitivity score (HS-PSS [6]) | drug sensitivity score (HS-Sch-2 [7]) | drug sensitivity score [8] | drug sensitivity score (S462 [9]) | drug sensitivity score [10] | drug sensitivity score (STS26T [11]) | drug sensitivity score (ST8814 [12]) | drug sensitivity score (S1507-2 [13]) | drug sensitivity score (HS-PSS [14]) | drug sensitivity score [15] | % inhibition [16] | % inhibition (STS26T [17]) | % inhibition (ST8814 [18]) | % inhibition (YST-1 [19]) | % inhibition (S1507-2 [20]) | % inhibition (HS-PSS [21]) | % inhibition (HS-Sch-2 [22]) | % inhibition [23] | % inhibition (S462 [24])
1 | CCC/C=C/C=C/C(=O)O[C@H]1/C(=C/C(=O)OC)C[C@H]2C[C@H]([C@@H](C)O)OC(=O)C[C@H](O)C[C@@H]3C[C@H](OC(C)=O)C(C)(C)[C@](O)(C[C@@H]4C/C(=C/C(=O)OC)C[C@H](/C=C/C(C)(C)[C@]1(O)O2)O4)O3 [Bryostatin 1] (max concentration tested 100 nM) | 0 | 2.82 | 0 | 0 | 0.762 ± 1.1 | 1.21 | 7.06 | 0 | 1.37 ± 0.77 | 0 | 0 | 0 | 2.29 ± 3.2 | 0 | 0 | -14.2% | 20.4% | -11.8% | 7.32% | 21.1 ± 2.6% | 11.2% | 19.4% | -11.5% | 24.9 ± 3.1%
2 | CC(C)c1cc(-c2n[nH]c(=O)n2-c2ccc3c(ccn3C)c2)c(O)cc1O [Ganetespib] (max concentration tested 1000 nM) | 20.6 | 17.6 | 20.7 | 13.7 | 15.5 | 13.9 | 19.6 | 21.5 | 19.2 | 20.9 | 10.9 | 17.2 | 12.7 | 4.34 | 21.1 | 98.5% | 94.1% | 101% | 79.1% | 94.5% | 84.2% | 101% | 99.1% | 99.6%
3 | CCS(=O)(=O)c1cccc(-c2cc(C(=O)NC3CCN(C)CC3)c(C)c3[nH]c4ncc(C)cc4c23)c1 [TAK-901] (max concentration tested 1000 nM) | 8.24 | 7.82 | 3.64 | 10.1 | 1.99 ± 0.39 | 5.46 | 3.76 | 7.19 | 8.66 ± 0.25 | 11 | 6.2 | 5.81 | 0 | 0 | 0.0275 | 65.6% | 69.6% | 57.6% | 76.6% | 23.5 ± 3.2% | 57.5% | 70.3% | 63.8% | 80.6 ± 2.5%
4 | NC1(c2ccc(-c3nc4ccn5c(=O)[nH]nc5c4cc3-c3ccccc3)cc2)CCC1 [MK-2206] (max concentration tested 1000 nM) | 0 | 2.7 | 0 | 4.28 | 2.75 ± 0.87 | 1.05 | 0.49 | 0.083 | 0.275 ± 0.12 | 0 | 0 | 0 | 0 | 0 | 0 | -3.64% | 29.9% | 2.43% | 46.2% | 23.8 ± 1.6% | 18% | 13.3% | 11% | 10.5 ± 1.5%
5 | CC[C@H](Nc1ncnc2[nH]cnc12)c1nc2cccc(F)c2c(=O)n1-c1ccccc1 [Idelalisib] (max concentration tested 10000 nM) | 0 | 4.47 | 0.546 | 5.3 | 7.05 ± 0.49 | 0 | 0 | 0 | 0 | 2.82 | 2.81 | 0 | 0 | 0 | 0 | 9.86% | 49.3% | 21.2% | 46.5% | 35.2 ± 8.5% | 2.74% | 3.62% | 14.6% | 19.1 ± 8.8%
6 | CC1(COc2ccc3c(c2)ncn3-c2ccc3cccc(N4CCC(N)CC4)c3n2)COC1 [Crenolanib] (max concentration tested 10000 nM) | 5.95 | 6.09 | 8.29 | 5.36 | 7 ± 2.5 | 4.89 | 10.5 | 5.48 | 5.16 ± 0.26 | 3.85 | 5.47 | 7.03 | 10.4 ± 4.5 | 4.69 | 3.33 | 85.3% | 95.3% | 95% | 101% | 95.6 ± 0.82% | 101% | 101% | 84.7% | 95.09 ± 0.94%
7 | C=CC(=O)Nc1cc2c(Nc3ccc(F)c(Cl)c3)ncnc2cc1OCCCN1CCOCC1 [Canertinib] (max concentration tested 10000 nM) | 7.63 | 7.19 | 8.06 | 5.36 | 7.98 ± 0.98 | 6.16 | 6.37 | 8.87 | 6.03 ± 1 | 8 | 4.76 | 4.72 | 5.1 ± 0.58 | 3.38 | 7.58 | 96.2% | 96.5% | 96.3% | 96.3% | 87.9 ± 0.97% | 88.7% | 94.2% | 96.6% | 96.1 ± 0.97%
